Measured values: patent US20240166663A1, “NOVEL PYRIMIDINE DERIVATIVE SHOWING INHIBITION EFFECT ON GROWTH OF CANCER CELLS” (ONCOBIX CO., LTD., priority 2021, published 2024)

Target: EXON 20 Insertion(NPG) Ba/F3 Cell (Homo sapiens, UniProt P00533, INS772GNP, cells depend on it)
Test: Measurement of cancer cell growth inhibitory effect (MTT assay)
Type: cell-based, Murine
Details: Ba/F3 cells expressing EGFR with NPG added at D770_N771, 72 hours treatment, read at 595 nm, read-out: EXON 20 Insertion(NPG) Ba/F3 Cell(IC50)
From the text: Since there is no commercially available lung cancer cell line with EGFR insertion mutation, a method of inserting 3 to 4 amino acids at each site using site direct mutagenesis in a wild type EGFR expression vector was attempted. In the present invention, first, a vector with three amino acids of NPG added to the D770_N771 site with the highest frequency was used, and Ba/F3 cell line was used for expression of these genes.
When the oncogenic mutant EGFR is expressed, dependence on the mutant EGFR for cell growth and apoptosis occurs without IL-3. Therefore, substances that show effective inhibition of mutant EGFR suppress cell growth and induce apoptosis, so the anticancer effect of cells was analyzed through MTT assay.
1×10^4 cells of the previously constructed stable cells were put into a 96 well plate and incubated overnight, and then the compound of Example was dose dependently treated. After 72 hours, MTT reagent was added, and after 3 hours stop buffer (10% SDS) was added. After 24 hours of incubation, the results were analyzed by reading at 595 nm. […] As a control drug, Mobocertinib was used.

Sequence of EXON 20 Insertion(NPG) Ba/F3 Cell (P00533 with tags, fused parts or gaps INS772GNP): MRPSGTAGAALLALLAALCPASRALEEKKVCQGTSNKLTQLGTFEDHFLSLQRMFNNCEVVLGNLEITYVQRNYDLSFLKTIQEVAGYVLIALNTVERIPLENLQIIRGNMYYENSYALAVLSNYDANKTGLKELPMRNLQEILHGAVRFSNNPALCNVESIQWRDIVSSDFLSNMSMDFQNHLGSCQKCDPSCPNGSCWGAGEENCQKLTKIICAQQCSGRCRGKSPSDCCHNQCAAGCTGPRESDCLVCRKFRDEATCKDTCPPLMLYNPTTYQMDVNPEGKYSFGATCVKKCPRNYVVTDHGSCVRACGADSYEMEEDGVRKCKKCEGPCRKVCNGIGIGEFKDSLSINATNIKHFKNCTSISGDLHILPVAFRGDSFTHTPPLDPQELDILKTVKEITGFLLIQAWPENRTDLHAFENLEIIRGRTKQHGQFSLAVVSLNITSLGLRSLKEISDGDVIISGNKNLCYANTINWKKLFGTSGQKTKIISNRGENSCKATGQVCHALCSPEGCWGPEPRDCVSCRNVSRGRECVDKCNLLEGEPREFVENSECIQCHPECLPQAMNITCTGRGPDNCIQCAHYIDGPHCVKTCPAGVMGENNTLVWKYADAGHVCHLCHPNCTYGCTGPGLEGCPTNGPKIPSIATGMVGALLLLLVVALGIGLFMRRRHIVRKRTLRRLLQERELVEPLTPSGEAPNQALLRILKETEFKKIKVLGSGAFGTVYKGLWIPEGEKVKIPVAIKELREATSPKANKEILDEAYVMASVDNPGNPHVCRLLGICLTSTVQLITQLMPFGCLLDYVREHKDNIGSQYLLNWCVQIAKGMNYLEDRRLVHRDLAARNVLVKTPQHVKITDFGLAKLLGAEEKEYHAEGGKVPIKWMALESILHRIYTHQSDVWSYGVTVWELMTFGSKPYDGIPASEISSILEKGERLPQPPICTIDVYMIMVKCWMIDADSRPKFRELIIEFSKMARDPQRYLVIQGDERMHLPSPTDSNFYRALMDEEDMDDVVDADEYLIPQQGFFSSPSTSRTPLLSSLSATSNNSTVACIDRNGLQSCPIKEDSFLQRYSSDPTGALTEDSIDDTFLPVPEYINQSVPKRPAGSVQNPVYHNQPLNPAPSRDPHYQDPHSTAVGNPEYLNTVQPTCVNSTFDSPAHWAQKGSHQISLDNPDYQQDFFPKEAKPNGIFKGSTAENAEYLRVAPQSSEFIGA

`C=CC(=O)Nc1cc(Nc2cc(Nc3ccccc3-c3ccn(C)n3)ncn2)c(OC)cc1N(C)[C@@H]1CCN(C)C1` [Example 8, (R)-N-(4-methoxy-2-(methyl(1-methylpyrrolidin-3-yl)amino)-5-((6-((2-(1-methyl-1H-pyrazol-3-yl)phenyl)amino)pyrimidin-4-yl)amino)phenyl)acrylamide] and `C=CC(=O)Nc1cc(Nc2cc(Nc3ccccc3-c3ccn(C)n3)ncn2)c(OC)cc1N(C)[C@H]1CCN(C)C1` [Example 9, (S)-N-(4-methoxy-2-(methyl(1-methylpyrrolidin-3-yl)amino)-5-((6-((2-(1-methyl-1H-pyrazol-3-yl)phenyl)amino)pyrimidin-4-yl)amino)phenyl)acrylamide] fall in the same range of GI50: 25 to 50 nM for the first, 25 to 50 nM for the second.

`C=CC(=O)Nc1cc(Nc2ncc(Cl)c(Nc3ccccc3-c3ccn(C)n3)n2)c(OC)cc1N1CC[C@H](N(C)C)C1` [Example 33, (S)-N-(5-((5-chloro-4-((2-(1-methyl-1H-pyrazol-3-yl)phenyl)amino)pyrimidin-2-yl)amino)-2-(3-(dimethylamino)pyrrolidin-1-yl)-4-methoxyphenyl)acrylamide] and `C=CC(=O)Nc1cc(Nc2ncc(Cl)c(Nc3ccccc3-c3ccn(C)n3)n2)c(OC)cc1N1CC[C@@H](N(C)C)C1` [Example 34, (R)-N-(5-((5-chloro-4-((2-(1-methyl-1H-pyrazol-3-yl)phenyl)amino)pyrimidin-2-yl)amino)-2-(3-(dimethylamino)pyrrolidin-1-yl)-4-methoxyphenyl)acrylamide] fall in the same range of GI50: 25 to 50 nM for the first, 25 to 50 nM for the second.

`C=CC(=O)Nc1cc(Nc2ncc(C(=O)OC(C)C)c(Nc3ccccc3-c3ccn(C)n3)n2)c(OC)cc1N1CCOCC1` [Example 24, Isopropyl 2-((5-acrylamido-2-methoxy-4-morpholinophenyl)amino)-4-((2-(1-methyl-1H-pyrazol-3-yl)phenyl)amino)pyrimidin-5-carboxylate] and `C=CC(=O)Nc1cc(Nc2ncc(Cl)c(Nc3ccccc3-c3ccn(C)n3)n2)c(OC)cc1N1CCOCC1` [Example 32, N-(5-((5-chloro-4-((2-(1-methyl-1H-pyrazol-3-yl)phenyl)amino)pyrimidin-2-yl)amino)-4-methoxy-2-morpholinophenyl)acrylamide] fall in the same range of GI50: 25 to 50 nM for the first, 25 to 50 nM for the second.

First: C=CC(=O)Nc1cc(Nc2ncc(C(=O)OC)c(Nc3ccccc3-n3cccn3)n2)c(OC)cc1N(C)CCN(C)C [Example 19, methyl 4-((2-(1H-pyrazol-1-yl)phenyl)amino)-2-((5-acrylamido-4-((2-(dimethylamino)ethyl)(methyl)amino)-2-methoxyphenyl)amino)pyrimidin-5-carboxylate]
Second: C=CC(=O)Nc1cc(Nc2ncc(C(=O)OC(C)C)c(Nc3ccccc3-n3cccn3)n2)c(OC)cc1N(C)CCN(C)C [Example 17, Isopropyl 4-((2-(1H-pyrazol-1-yl)phenyl)amino)-2-((5-acrylamido-4-((2-(dimethylamino)ethyl)(methyl)amino)-2-methoxyphenyl)amino)pyrimidin-5-carboxylate]
The GI50 of the first is higher: 25 to 50 nM for the first, less than 25 nM for the second.

`C=CC(=O)Nc1cc(Nc2cc(Nc3ccccc3-n3cccn3)ncn2)c(OC)cc1N1CC2COCC2C1` (centres unmarked) [Example 38, N-(5-((6-((2-(1H-pyrazol-1-yl)phenyl)amino)pyrimidin-4-yl)amino)-4-methoxy-2-(tetrahydro-1H-furo[3,4-c]pyrrol-5 (3H)-yl)phenyl)acrylamide] and `C=CC(=O)Nc1cc(Nc2cc(Nc3ccccc3-c3ccn(C)n3)ncn2)c(OC)cc1N1CCOCC1` [Example 5, N-(4-methoxy-5-((6-((2-(1-methyl-1H-pyrazol-3-yl)phenyl)amino)pyrimidin-4-yl)amino)-2-morpholinophenyl)acrylamide] fall in the same range of GI50: 25 to 50 nM for the first, 25 to 50 nM for the second.

Compared with `C=CC(=O)Nc1cc(Nc2cc(Nc3ccccc3-c3ccn(C)n3)ncn2)c(OC(C)C)cc1N(C)CCN(C)C` [Example 3, N-(2-((2-(dimethylamino)ethyl)(methyl)amino)-4-isopropoxy-5-((6-((2-(1-methyl-1H-pyrazol-3-yl)phenyl)amino)pyrimidin-4-yl)amino)phenyl)acrylamide], `C=CC(=O)Nc1cc(Nc2ncc(C(=O)OC(C)C)c(Nc3ccccc3-c3ccn(C)n3)n2)c(OC)cc1N(C)CCN(C)C` [Example 16, Isopropyl 2-((5-acrylamido-4-((2-(dimethylamino)ethyl)(methyl)amino)-2-methoxyphenyl)amino)-4-((2-(1-methyl-1H-pyrazol-3-yl)phenyl)amino)pyrimidin-5-carboxylate] is lower in GI50: 25 to 50 nM for the first, less than 25 nM for the second.

`C=CC(=O)Nc1cc(Nc2ncc(C#N)c(Nc3ccccc3-c3ccn(C)n3)n2)c(OC)cc1N(C)CCN(C)C` [Example 13, N-(5-((5-cyano-4-((2-(1-methyl-1H-pyrazol-3-yl)phenyl)amino)pyrimidin-2-yl)amino)-2-((2-(dimethylamino)ethyl)(methyl)amino)-4-methoxyphenyl)acrylamide] and `C=CC(=O)Nc1cc(Nc2ncc(Cl)c(Nc3ccccc3-c3ccn(C)n3)n2)c(OC)cc1N(C)[C@@H]1CCN(C)C1` [Example 35, (R)-N-(5-((5-chloro-4-((2-(1-methyl-1H-pyrazol-3-yl)phenyl)amino)pyrimidin-2-yl)amino)-4-methoxy-2-(methyl(1-methylpyrrolidin-3-yl)amino)phenyl)acrylamide] fall in the same range of GI50: 25 to 50 nM for the first, 25 to 50 nM for the second.
